From US5968910A, “Compositions containing two or three inhibitors of different HIV reverse transcriptases” (priority 1994, dated 1999)
pIC50: −log10 of the molar value. Converted amounts (≈) assume the structure as drawn. Like-named read-outs stand apart in the source and are kept apart here.

Key:
[1] = test system: HIV-1(IIIB) (WT); assay: microbe, parasite or virus in culture; type: cell-based; conditions: Human immunodeficiency virus 1, IIIB, CCRF-CEM
Method in brief: (§1)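 Syncytium formation read out after 4 days at 37° C. Cultures: CEM cells, 250,000/ml, infected at 100 50% cell culture infective doses/ml and added to compound dilutions.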

[2] = test system: HIV-1/B 101Glu; assay: Sensitivity of mutant HIV-1 strain in CEM cell cultures; type: cell-based; conditions: Human immunodeficiency virus 1, CCRF-CEM; Table 5; read-out: EC50
Method in brief: as §1

[3] = test system: HIV-1/I(0.1) 103-Asn; assay: as above; type: cell-based; conditions: Human immunodeficiency virus 1, CCRF-CEM; Table 5; read-out: EC50
Method in brief: as §1

[4] = test system: HIV-1/II(0.1) 100-Ile; assay: as above; type: cell-based; conditions: Human immunodeficiency virus 1, CCRF-CEM; Table 5; read-out: EC50
Method in brief: as §1

[5] = test system: HIV-1/III(0.1) 103-Asn; assay: as above; type: cell-based; conditions: Human immunodeficiency virus 1, CCRF-CEM; Table 5; read-out: EC50
Method in brief: as §1

[6] = test system: HIV-1/IV(0.1) 103-Thr; assay: as above; type: cell-based; conditions: Human immunodeficiency virus 1, CCRF-CEM; Table 5; read-out: EC50
Method in brief: as §1

[7] = test system: HIV-1/Nev (106-Ala); assay: as above; type: cell-based; conditions: Human immunodeficiency virus 1, CCRF-CEM; CEM cells, Table 1; read-out: 50% Effective Concentration
Method in brief: as §1

[8] = test system: HIV-1/Pyr (181-Cys); assay: as above; type: cell-based; conditions: Human immunodeficiency virus 1, CCRF-CEM; CEM cells, Table 1; read-out: 50% Effective Concentration
Method in brief: as §1

[9] = test system: HIV-1/TIBO R82150 (100-Ile); assay: as above; type: cell-based; conditions: Human immunodeficiency virus 1, CCRF-CEM; CEM cells, Table 1; read-out: 50% Effective Concentration
Method in brief: as §1

[10] = test system: HIV-1/TIBO R82913 (103-Asn); assay: as above; type: cell-based; conditions: Human immunodeficiency virus 1, CCRF-CEM; CEM cells, Table 1; read-out: 50% Effective Concentration
Method in brief: as §1

[11] = test system: HIV-1/TSAO-m^3 T (138-Lys); assay: as above; type: cell-based; conditions: Human immunodeficiency virus 1, CCRF-CEM; CEM cells, Table 1; read-out: 50% Effective Concentration
Method in brief: as §1

[12] = test system: HIV-1/V(0.1) 101-Ile + 141-Glu; assay: as above; type: cell-based; conditions: Human immunodeficiency virus 1, CCRF-CEM; Table 5; read-out: EC50
Method in brief: as §1

[13] = test system: HIV-1/V(0.5) 103-Asn; assay: as above; type: cell-based; conditions: Human immunodeficiency virus 1, CCRF-CEM; Table 5; read-out: EC50
Method in brief: as §1

[14] = biological target: HIV-1 RT (WT) (Human immunodeficiency virus type 1 group M subtype B, UniProt P03366); assay: biochemical
Method in brief: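 Recombinant HIV-1 RT incubated 30 min at 37° C with poly(C).oligo(dG) (0.1 mM) and [³H]dGTP (2.95 μM) in Tris pH 7.8 with 5 mM MgCl2, 150 mM KCl, DTT, glutathione, Triton X-100; 5-fold compound dilutions. Acid-insoluble radioactivity counted after TCA/pyrophosphate precipitation.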

[15] = test system: HIV-1(IIIB); assay: Knock-out concentrations: breakthrough of HIV-1(IIIB)-induced cytopathicity in CEM cell cultures; type: cell-based; conditions: for activity at 0.1 µg/mL / activity at 0.5 µg/mL / activity at 2.5 µg/mL: Human immunodeficiency virus 1, IIIB, CCRF-CEM, read-out: HIV-1-induced cytopathicity in cell culture; for activity at 0.1 µg/mL: 0.1 μg/ml; for activity at 0.5 µg/mL: 0.5 μg/ml; for activity at 2.5 µg/mL: 2.5 μg/ml
Method in brief: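 CEM cells in RPMI 1640 with 10% FBS infected with HIV-1(IIIB) at ~1000× CCID50, subcultured every 3–4 days into fresh uninfected cells with drug held constant for 10 subcultivations (35 days), then ≥5 drug-free passages. Breakthrough scored by syncytium formation. Combinations used the two lowest single-drug starting concentrations.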

[16] = 936 h, day 39 post infection, compound absent from day 35
[17] = 1008 h, day 42 post infection, compound absent from day 35
[18] = 1104 h, day 46 post infection, compound absent from day 35
[19] = 1176 h, day 49 post infection, compound absent from day 35
[20] = 1272 h, day 53 post infection, compound absent from day 35

Compound: Cc1occc1C(=S)Nc1ccc(Cl)c(C=NOC(C)(C)C)c1 [Compound I]
- EC50 ([1]; CEM cells, Table 1, read-out: 50% Effective Concentration): 0.05 µg/mL (≈ 0.143 µM)
- EC50 ([1]; HIV-1 (III8), Table 5, read-out: EC50): 0.01 µg/mL (≈ 0.0285 µM)
- IC50 ([1]; range stated for Compounds I-V together, read-out: 50% inhibitory concentration, HIV-1(IIIB) replication in CEM cells): 0.004 to 0.05 µg/mL (≈ 0.0114 to 0.143 µM)
- EC50 [2]: ≥ 1 µg/mL
- EC50 [3]: 0.23 µg/mL (≈ 0.656 µM)
- EC50 [4]: 1.25 µg/mL (≈ 3.56 µM)
- EC50 [5]: 0.3 µg/mL (≈ 0.855 µM)
- EC50 [6]: 0.6 µg/mL (≈ 1.71 µM)
- EC50 [7]: 0.13 µg/mL (≈ 0.371 µM)
- EC50 [8]: 0.075 µg/mL (≈ 0.214 µM)
- EC50 [9]: 0.085 µg/mL (≈ 0.242 µM)
- EC50 [10]: ≥ 1 µg/mL
- EC50 [11]: 0.075 µg/mL (≈ 0.214 µM)
- EC50 [12]: 0.12 µg/mL (≈ 0.342 µM)
- EC50 [13]: 0.73 µg/mL (≈ 2.08 µM)
- pIC50 ([14]; range stated for the compounds together, poly(C).oligo(dG), 2.95 μM [2,8-3H]dGTP, read-out: IC50 on recombinant HIV-1 RT): 6.66 to 7.29
- IC50 ([14]; substrate [2,8-3H]dGTP 2.95 μM, template poly(rC)oligo(dG), read-out: IC50, anti-HIV-1 RT (WT) activity (converted)): 202 nM
- prevention of virus breakthrough, fold more efficient than BHAP [15]: at least 5 fold
- prevention of virus breakthrough, fold more efficient than nevirapine [15]: ≥ 25 fold
- activity at 0.1 µg/mL ([15]; 96 h, day 4 post infection): 0%
- activity at 0.5 µg/mL ([15]; 96 h, day 4 post infection): 0%
- activity at 2.5 µg/mL ([15]; 96 h, day 4 post infection): 0%
- activity at 0.1 µg/mL ([15]; 192 h, day 8 post infection): 0%
- activity at 0.5 µg/mL ([15]; 192 h, day 8 post infection): 0%
- activity at 2.5 µg/mL ([15]; 192 h, day 8 post infection): 0%
- activity at 0.1 µg/mL ([15]; 264 h, day 11 post infection): 6.2%
- activity at 0.5 µg/mL ([15]; 264 h, day 11 post infection): 0%
- activity at 2.5 µg/mL ([15]; 264 h, day 11 post infection): 0%
- activity at 0.1 µg/mL ([15]; 336 h, day 14 post infection): 25%
- activity at 0.5 µg/mL ([15]; 336 h, day 14 post infection): 0%
- activity at 2.5 µg/mL ([15]; 336 h, day 14 post infection): 0%
- activity at 0.1 µg/mL ([15]; 408 h, day 17 post infection): 100%
- activity at 0.5 µg/mL ([15]; 408 h, day 17 post infection): 0%
- activity at 2.5 µg/mL ([15]; 408 h, day 17 post infection): 0%
- activity at 0.1 µg/mL ([15]; 504 h, day 21 post infection): 100%
- activity at 0.5 µg/mL ([15]; 504 h, day 21 post infection): 0%
- activity at 2.5 µg/mL ([15]; 504 h, day 21 post infection): 0%
- activity at 0.1 µg/mL ([15]; 600 h, day 25 post infection): 100%
- activity at 0.5 µg/mL ([15]; 600 h, day 25 post infection): 0%
- activity at 2.5 µg/mL ([15]; 600 h, day 25 post infection): 0%
- activity at 0.1 µg/mL ([15]; 672 h, day 28 post infection): 100%
- activity at 0.5 µg/mL ([15]; 672 h, day 28 post infection): 0%
- activity at 2.5 µg/mL ([15]; 672 h, day 28 post infection): 0%
- activity at 0.1 µg/mL ([15]; 768 h, day 32 post infection): 100%
- activity at 0.5 µg/mL ([15]; 768 h, day 32 post infection): 0%
- activity at 2.5 µg/mL ([15]; 768 h, day 32 post infection): 0%
- activity at 0.1 µg/mL ([15]; 840 h, day 35 post infection): 100%
- activity at 0.5 µg/mL ([15]; 840 h, day 35 post infection): 0%
- activity at 2.5 µg/mL ([15]; 840 h, day 35 post infection): 0%
- activity at 0.1 µg/mL [15, 16]: 100%
- activity at 0.5 µg/mL [15, 16]: 0%
- activity at 2.5 µg/mL [15, 16]: 0%
- activity at 0.1 µg/mL [15, 17]: 100%
- activity at 0.5 µg/mL [15, 17]: 0%
- activity at 2.5 µg/mL [15, 17]: 0%
- activity at 0.1 µg/mL [15, 18]: 100%
- activity at 0.5 µg/mL [15, 18]: 0%
- activity at 2.5 µg/mL [15, 18]: 0%
- activity at 0.1 µg/mL [15, 19]: 100%
- activity at 0.5 µg/mL [15, 19]: 0%
- activity at 2.5 µg/mL [15, 19]: 0%
- activity at 0.1 µg/mL [15, 20]: 100%
- activity at 0.5 µg/mL [15, 20]: 0%
- activity at 2.5 µg/mL [15, 20]: 0%
- concentration at which virus emerged (virus breakthrough) ([15]; tested at 0.1, 0.5 and 2.5 μg/ml, 35 days): 0.1 µg/mL
